# Test results published in PubChem BioAssay AID1159536 (DiRusso Lab, Biochemistry Department, University of Nebraska, 2015).
# Inconclusive results are not listed. The source made the active and inactive calls. How the calls were made is not given here.
# Tested on: Chlamydomonas reinhardtii, Nile Red lipid fluorescence, 72 h
# Test: algal triacylglycerol accumulation inducers, dose response, qHTS, Chlamydomonas reinhardtii (AID 1159536)
# Conditions: not given
row,SMILES,EC50 [µM]
1,O=C(c1ccc([N+](=O)[O-])cc1)N1CCN(CC2CC3C=CC2C3)CC1 (stereo not given),6.07
2,C(#CCN1CCCCC1)COc1ccccc1,4.84
3,CN1CCN(c2ccc([N+](=O)[O-])c(N3CCCCC3)c2)CC1,10.1
4,COc1ccc(OCCCN2CCCC(C)C2)cc1 (stereo not given),12.5
5,COc1ccc(CCN(C)Cc2ccc([N+](=O)[O-])cc2)cc1OC,10
6,C1=CC2CC1CC2CN1CCN(Cc2ccccc2)CC1 (stereo not given),6.19
7,Fc1ccc(N2CCN(Cc3ccccc3)CC2)cc1,1.37

# Tested on: not listed separately
# Test: as above
# Conditions: Chlamydomonas reinhardtii, Nile Red lipid fluorescence, 72 h; at 30 µM (top of the series)
row,SMILES,"fold change vs untreated, higher = more lipid"
1,Cc1c(N/C=C/C(=O)c2cccs2)c(=O)n(-c2ccccc2)n1C,1.42 (inactive)
2,O=C(O)C1CCN(C(=O)c2ccc(F)cc2)CC1,1.24 (inactive)
3,CCC1CCCCN1C(=O)c1ccc(Cl)cc1[N+](=O)[O-] (stereo not given),1.87 (inactive)
4,Cc1ccc(OCCCCN2CCCC2)c(C)c1,6.28
5,Cc1ccc(N2CCN(CCc3ccccc3)CC2)cc1,8.09
6,CCN1CCN(C2CCC(C(C)(C)C)CC2)CC1 (stereo not given),2.66 (inactive)
7,Cc1sc(NC(=O)c2cccs2)c(C(=O)O)c1C,1.38 (inactive)
8,COc1ccc(S(=O)(=O)N(CC(=O)NC(C)C)c2cc(C)cc(C)c2)cc1OC,1.07 (inactive)
9,Cc1ccc(Cn2cnc3c(cnn3-c3ccccc3)c2=O)c(C)c1,3 (inactive)
10,CC(C)(C)c1ccc(OCCCCN2CCOCC2)cc1,3.88
11,COc1cc(-c2ccc(NC(=O)c3ccco3)c(OC)c2)ccc1NC(=O)c1ccco1,1.4 (inactive)
12,COc1cc(NC(=O)C(Cl)Cl)c(OC)cc1Cl,1.42 (inactive)
13,O=C(NC1CCN(Cc2ccccc2)CC1)c1ccc(Cl)cc1Cl,12.2
14,Fc1ccc(N2CCN(CCc3ccccc3)CC2)cc1,9.42
15,Cc1cc(Br)ccc1OCC(=O)NCc1ccc2c(c1)OCO2,1.4 (inactive)
16,Cc1cc(Cl)c(OCCn2ccnc2)c(Br)c1,5.38
17,COc1cccc(CN2CCN(C(=O)c3cc(OC)c(OC)c(OC)c3)CC2)c1OC,1.75 (inactive)
18,O=C(Nc1ccccc1C(=O)NCc1ccccc1)c1ccc([N+](=O)[O-])cc1,2.49 (inactive)
19,Cc1c(C(=O)Nc2ccccc2C(=O)NCc2ccccc2)cccc1[N+](=O)[O-],2.77 (inactive)
20,CC(=O)Nc1ccc(OCC(=O)Nc2cc(Cl)cc(Cl)c2)cc1,2.48 (inactive)
21,Cc1ccc(CN2CCC(C(=O)NCc3ccccc3Cl)CC2)cc1,15.2
22,COc1ccccc1Cn1c(C(C)O)nc2ccccc21 (stereo not given),0.95 (inactive)
23,C=CCNC(=O)C(C)N(c1ccc(OCC)cc1)S(C)(=O)=O (stereo not given),1.69 (inactive)
